Source: paper PMC8752738, “A propolis-derived small molecule ameliorates metabolic syndrome in obese mice by targeting the CREB/CRTC2 transcriptional complex” (Nature Communications, 2022)
Several values for one entry are separate records, joined by “and”; a condition that tells them apart may be missing. Equal values may be shown once.

System: tissue mRNA levels
Experiment: Quantitative PCR of tissue gene expression in treated mice
Format: in vivo, mouse
Parameters: key to mRNA levels Scap / mRNA levels Insig1 / mRNA levels Ldlr / mRNA levels Mttp / mRNA levels Atgl / mRNA levels Tnfaip2 / mRNA levels Rxra / mRNA levels Srebf1 / mRNA levels Ucp2: mRNA level normalized to ribosomal L32 mRNA (internal control)
Conditions: for Lxra mRNA level: Figure 7g right, APC-20, single animals
Experimental: Total RNA from cells and tissues was extracted by Trizol (Invitrogen) and reverse-transcribed into cDNA using the prime script RT reagent kit with gDNA eraser (Takara). The mRNA levels were determined using the SYBR-green PCR kit (Takara) with ABIPRISM 7900HT Sequence detector (ABI) according to the manufacturer’s protocol. The quantitative qPCR primers used in this work are listed in Supplementary Table 1. Ribosomal L32 mRNA levels were used as an internal control.

[1] = Figure 6f, CRTC2KO mice, oral APC, individual mice
[2] = Figure 6f, WT mice, oral APC, group mean, N 6
[3] = Figure 6f, WT mice, oral APC, individual mice
[4] = Figure 8b, group mean, VEH mean 1.017
[5] = Figure 8b, individual mice, relative to CT
[6] = Figure 6d, white fat (WF) tissue of DIO mice, individual animals

SMILES: CC(C)=CCc1cc(C=CC(=O)O)cc(CC=C(C)C)c1O [APC, 3,5-diprenyl-4-hydroxycinnamic acid]
- mRNA of Srebf-1c [1]: 0.7027 and 0.8687 and 0.636 and 0.7129 and 0.563 and 0.649
- mRNA of Srebf-2 [1]: 0.9632 and 0.7439 and 0.6331 and 0.8903 and 0.6443 and 0.8216
- mRNA of Srebf-1c, Mean Diff. APC - VEH (Figure 6f, WT mice, oral APC): -0.3789
- mRNA of Srebf-2, Mean Diff. APC - VEH (Figure 6f, WT mice, oral APC): -0.3018
- mRNA of Srebf-1c, Mean 1 (APC) [2]: 0.629
- mRNA of Srebf-2, Mean 1 (APC) [2]: 0.7556
- mRNA of Srebf-1c [3]: 0.563 and 0.9627 and 0.5968 and 0.3599 and 0.5266 and 0.7651
- mRNA of Srebf-2 [3]: 0.6655 and 0.7786 and 0.6178 and 0.7571 and 0.8561 and 0.8585
- Lxra mRNA level (Crtc2KO mice): 1.153 and 0.7926 and 0.8176 and 0.4111 and 0.7938
- Lxra mRNA level (WT mice): 0.6135 and 0.274 and 0.3613 and 0.5157 and 0.4764
- mRNA levels G6Pase, Mean of APC (Figure 8b, group mean, VEH mean 1.004): 0.5682
- mRNA levels Pck1, Mean of APC [4]: 0.584
- mRNA levels Pgc-1a, Mean of APC [4]: 0.499
- mRNA levels G6Pase [5]: 0.4956 and 0.4542 and 0.8275 and 0.9159 and 0.3526 and 0.3635
- mRNA levels Pck1 [5]: 0.4515 and 0.4432 and 0.8122 and 0.7784 and 0.5234 and 0.4955
- mRNA levels Pgc-1a [5]: 0.6618 and 0.6014 and 0.6454 and 0.5396 and 0.2614 and 0.2843
- mRNA levels ApoB, Mean of APC (Figure 6d, white fat (WF) tissue of DIO mice, group mean, Mean of VEH 0.9173): 0.3598
- mRNA levels Srebf-1c, Mean of APC (Figure 6d, white fat (WF) tissue of DIO mice, group mean, Mean of VEH 0.9567): 0.3721
- mRNA levels Acsl1, Mean of APC (Figure 6d, white fat (WF) tissue of DIO mice, group mean, Mean of VEH 0.9649): 0.4379
- mRNA levels Lxra, Mean of APC (Figure 6d, white fat (WF) tissue of DIO mice, group mean, Mean of VEH 0.976): 0.6757
- mRNA levels Cebpa, Mean of APC (Figure 6d, white fat (WF) tissue of DIO mice, group mean, Mean of VEH 0.9829): 1.129
- mRNA levels Creb, Mean of APC (Figure 6d, white fat (WF) tissue of DIO mice, group mean, Mean of VEH 0.9868): 1.007
- mRNA levels Cpt1, Mean of APC (Figure 6d, white fat (WF) tissue of DIO mice, group mean, Mean of VEH 0.9898): 1.536
- mRNA levels Pparγ, Mean of APC (Figure 6d, white fat (WF) tissue of DIO mice, group mean, Mean of VEH 0.9976): 0.9616
- mRNA levels Tnfaip2, Mean of APC (Figure 6d, white fat (WF) tissue of DIO mice, group mean, Mean of VEH 1.005): 0.9923
- mRNA levels Pgc-1a, Mean of APC (Figure 6d, white fat (WF) tissue of DIO mice, group mean, Mean of VEH 1.009): 0.704
- mRNA levels Srebf-2, Mean of APC (Figure 6d, white fat (WF) tissue of DIO mice, group mean, Mean of VEH 1.017): 0.6488
- mRNA levels Acc, Mean of APC (Figure 6d, white fat (WF) tissue of DIO mice, group mean, Mean of VEH 1.018): 0.5342
- mRNA levels Scd1, Mean of APC (Figure 6d, white fat (WF) tissue of DIO mice, group mean, Mean of VEH 1.022): 0.5423
- mRNA levels Fasn, Mean of APC (Figure 6d, white fat (WF) tissue of DIO mice, group mean, Mean of VEH 1.036): 0.5535
- mRNA levels Mgll, Mean of APC (Figure 6d, white fat (WF) tissue of DIO mice, group mean, Mean of VEH 1.041): 0.6295
- mRNA levels Retn, Mean of APC (Figure 6d, white fat (WF) tissue of DIO mice, group mean, Mean of VEH 1.044): 0.3139
- mRNA levels Glut4, Mean of APC (Figure 6d, white fat (WF) tissue of DIO mice, group mean, Mean of VEH 1.054): 0.2982
- mRNA levels Atgl, Mean of APC (Figure 6d, white fat (WF) tissue of DIO mice, group mean, Mean of VEH 1.057): 1.332
- mRNA levels Hsl, Mean of APC (Figure 6d, white fat (WF) tissue of DIO mice, group mean, Mean of VEH 1.069): 1.68
- mRNA levels Lpl, Mean of APC (Figure 6d, white fat (WF) tissue of DIO mice, group mean, Mean of VEH 1.114): 0.6106
- mRNA levels Pgc-1b, Mean of APC (Figure 6d, white fat (WF) tissue of DIO mice, group mean, Mean of VEH 1.126): 0.666
- mRNA levels Acc [6]: 0.5239 and 0.3917 and 0.6963 and 0.6783 and 0.5952 and 0.3196
- mRNA levels Acsl1 [6]: 0.4459 and 0.1537 and 0.5539 and 0.2927 and 0.6116 and 0.5696
- mRNA levels ApoB [6]: 0.3337 and 0.2599 and 0.6345 and 0.1702 and 0.408 and 0.3527
- mRNA levels Atgl [6]: 1.322 and 1.233 and 1.718 and 1.2249 and 1.301 and 1.192
- mRNA levels Cebpa [6]: 1.279 and 0.9809 and 1.111 and 1.353 and 1.154 and 0.8979
- mRNA levels Cpt1 [6]: 1.627 and 1.184 and 1.402 and 2.24 and 1.4196 and 1.345
- mRNA levels Creb [6]: 1.411 and 1.393 and 1.026 and 0.3555 and 0.9743 and 0.8802
- mRNA levels Fasn [6]: 0.5104 and 0.4062 and 0.9888 and 0.3127 and 0.6571 and 0.4456
- mRNA levels Glut4 [6]: 0.4697 and 0.1331 and 0.1991 and 0.1942 and 0.3683 and 0.4245
- mRNA levels Hsl [6]: 2.303 and 1.694 and 1.5898 and 1.21 and 1.869 and 1.4146
- mRNA levels Lpl [6]: 0.6557 and 0.743 and 0.6544 and 0.3781 and 0.733 and 0.4994
- mRNA levels Lxra [6]: 0.7883 and 0.7167 and 0.4804 and 0.6732 and 0.7502 and 0.6457
- mRNA levels Mgll [6]: 0.5524 and 0.27 and 0.8642 and 0.6156 and 0.9323 and 0.5423
- mRNA levels Pgc-1a [6]: 0.5315 and 0.7402 and 0.6723 and 0.7798 and 0.8847 and 0.6158
- mRNA levels Pgc-1b [6]: 0.683 and 0.7869 and 0.6257 and 0.4165 and 0.7943 and 0.6894
- mRNA levels Ppargamma [6]: 1.1637 and 0.8189 and 1.303 and 0.8539 and 0.722 and 0.9079
